CC50 and EC50 data for 15 compounds are collected here from patent US20230056205A1, “SUBSTITUTED 4,6-DIHYDROSPIRO[[1,2,3]TRIAZOLO[4,5-B]PYRIDINE-7,3'-INDOLINE]-2',5(3H)-DIONE ANALOGUES” (The Board of Regents of The University of Texas System, priority 2019, published 2023).

Each structure is given as a SMILES string. Read-outs that look alike come from different tables or passages of the source. Some results are limits rather than exact numbers.

One may read the CC50 as the concentration that lowers cell viability or growth by half. High values mean better tolerance by the cells, low ones harm at low concentration. One may read the EC50 as the concentration that produces a half-maximal response.

A short description of series [1]: Cytotoxicity assay (CellTiter-Glo). In kind it is cell-based. To be noted: human, Huh7 cells stably expressing DENV-2 replicon. In a few lines: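 Huh7 or Huh7 replicon cells, seeded overnight at 37 °C, exposed to 2-fold serial dilutions of compound for 48 h in duplicate. Viability by CellTiter-Glo, normalised to 0.45% DMSO wells (100%); CC50 by four-parameter logistic regression.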
On the technique in general: ATP-based viability assays read luminescence as a measure of living cells.

A further series has as its system DENV-3 replicon. Nature of the series: Luciferase reporter replicon-based screening, DENV-3. In kind it is cell-based, DENV-3 (strain D3MY05-34640). In a few lines:
(§1)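 Huh7 cells carrying Renilla luciferase/neo replicons of DENV-1 (WestPac), DENV-2 (NGC), DENV-3 (D3MY05-34640) or DENV-4 (D4MY01-22713), treated with 2-fold compound dilutions for 48 h at 37 °C in duplicate. Live-cell luciferase read; EC50 by four-parameter logistic fit.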
(Reporter assays use an easily measured gene product as a stand-in for the process of interest.)

The next series concerns DENV-2 replicon. Description: Luciferase reporter replicon-based screening, DENV-2. In kind it is cell-based, DENV-2 (New Guinea C strain, NGC). In a few lines:
as §1

The test system of a further series is DENV-1 replicon. Nature of the series: Luciferase reporter replicon-based screening, DENV-1. In kind it is cell-based, DENV-1 (strain WestPac). Conditions: Dengue virus, DENV1, Huh-7, 48 h, read-out: EC50 DENV-1. In a few lines:
as §1

A further series deals with DENV-4 replicon. Nature of the series: Luciferase reporter replicon-based screening, DENV-4. Conditions: Dengue virus, DENV4, Huh-7, 48 h, read-out: EC50 DENV-4. In kind it is cell-based, DENV-4 (strain D4MY01-22713). In a few lines:
as §1

Where [2] appears, read: Dengue virus, DENV3, Huh-7, 48 h, read-out: EC50 DENV-3, Huh7 cells stably expressing DENV-3 replicon, 48 h.
Setting [3] is: Dengue virus, DENV2, Huh-7, 48 h, read-out: EC50 DENV-2, Huh7 cells stably expressing DENV-2 replicon, 48 h.

Consider `C[C@@H](c1ccc(Cl)cc1)n1nnc2c1NC(=O)C[C@]21C(=O)N(CCCN2CCOCC2)c2ccc(Cl)cc21` [Compound 65, (R)-5'-Chloro-3-((S)-1-(4-chlorophenyl)ethyl)-1'-(3-morpholinopropyl)-4,6-dihydrospiro[[1,2,3]triazolo[4,5-b]pyridine-7,3'-indoline]-2',5(3H)-dione], for which the cytotoxic concentration (CC50) at 48 h in series [1] was above 10000 nM. Besides, the concentration for a half-maximal effect (EC50) with DENV-3 replicon (setting [2]) was 5 nM; with DENV-2 replicon (setting [3]), 76 nM; in the series on DENV-1 replicon, above 5000 nM; with DENV-4 replicon, above 5000 nM.
For the compound `C[C@@H](c1ccc(Cl)cc1)n1nnc2c1NC(=O)C[C@]21C(=O)N(CCN2CCOCC2)c2ccc(Cl)cc21` [Compound 55, (R)-5'-chloro-3-((S)-1-(4-chlorophenyl)ethyl)-1'-(2-morpholinoethyl)-4,6-dihydrospiro[[1,2,3]triazolo[4,5-b]pyridine-7,3'-indoline]-2',5(3H)-dione], the CC50 at 48 h in series [1] is above 10000 nM. Moreover, the half-maximal effective concentration (EC50) was 17 nM in the series with DENV-3 replicon (setting [2]), 75 nM with DENV-2 replicon (setting [3]), above 5000 nM in the series with DENV-1 replicon and above 5000 nM in the series on DENV-4 replicon.
As to `COCCCN1C(=O)[C@]2(CC(=O)Nc3c2nnn3[C@@H](C)c2ccc(Cl)cc2)c2cc(Cl)ccc21` [Compound 39, (R)-5'-Chloro-3-((S)-1-(4-chlorophenyl)ethyl)-1'-(3-methoxypropyl)-4,6-dihydrospiro[[1,2,3]triazolo[4,5-b]pyridine-7,3'-indoline]-2',5(3H)-dione], the CC50 at 48 h in series [1] is above 10000 nM. In addition, the EC50 was 9 to 76 nM in the series with DENV-3 replicon (setting [2]); 9 nM in the series with DENV-3 replicon (read-out: EC50 DENV-3, Huh7 cells stably expressing DENV-3 replicon, 48 h); 37 to 290 nM in the series on DENV-2 replicon (setting [3]); 40 nM with DENV-2 replicon (read-out: EC50 DENV-2, Huh7 cells stably expressing DENV-2 replicon, 48 h); above 5000 nM with DENV-1 replicon; above 5000 nM with DENV-4 replicon.
`Cc1ccc(CN2C(=O)[C@]3(CC(=O)Nc4c3nnn4[C@@H](C)c3ccc(Cl)cc3)c3cc(Cl)ccc32)cn1` [Compound 37, (R)-5'-Chloro-3-((S)-1-(4-chlorophenyl)ethyl)-1'-((6-methylpyridin-3-yl)methyl)-4,6-dihydrospiro[[1,2,3]triazolo[4,5-b]pyridine-7,3'-indoline]-2',5(3H)-dione]: in series [1], the 50% cytotoxic concentration (CC50) at 48 h was above 10000 nM. Moreover, the half-maximal effective concentration (EC50) with DENV-3 replicon (setting [2]) was 11 nM; in the series with DENV-2 replicon (setting [3]), 150 nM; with DENV-1 replicon, above 5000 nM; with DENV-4 replicon it was above 5000 nM.
`C[C@@H](c1ccc(Cl)cc1)n1nnc2c1NC(=O)C[C@]21C(=O)N(C)c2ccc(Cl)cc21` [Compound 7, (R)-5'-Chloro-3-((S)-1-(4-chlorophenyl)ethyl)-1'-methyl-4,6-dihydrospiro[[1,2,3]triazolo[4,5-b]pyridine-7,3'-indoline]-2',5(3H)-dione] returned a CC50 at 48 h in series [1] above 10000 nM. Besides, the 50% effective concentration (EC50) was 4 nM with DENV-3 replicon (setting [2]), 19 nM in the series with DENV-2 replicon (setting [3]), above 5000 nM with DENV-1 replicon and above 5000 nM in the series with DENV-4 replicon.
In series [1], `COc1cccc(CN2C(=O)[C@]3(CC(=O)Nc4c3nnn4[C@@H](C)c3ccc(Cl)cc3)c3cc(Cl)ccc32)c1` [Compound 29, (R)-5'-Chloro-3-((S)-1-(4-chlorophenyl)ethyl)-1'-(3-methoxybenzyl)-4,6-dihydrospiro[[1,2,3]triazolo[4,5-b]pyridine-7,3'-indoline]-2',5(3H)-dione] displayed a CC50 at 48 h above 10000 nM. For the same compound, the EC50 in the series with DENV-3 replicon (setting [2]) came out at 87 nM; in the series with DENV-2 replicon (setting [3]), 830 nM; in the series with DENV-1 replicon, 2600 nM; in the series on DENV-4 replicon, 6200 nM.
For `CC(C)N1C(=O)[C@]2(CC(=O)Nc3c2nnn3[C@@H](C)c2ccc(Cl)cc2)c2cc(Cl)ccc21` [Compound 13, (R)-5'-Chloro-3-((S)-1-(4-chlorophenyl)ethyl)-1'-isopropyl-4,6-dihydrospiro[[1,2,3]triazolo[4,5-b]pyridine-7,3ʹ-indoline]-2',5(3H)-dione] the same measures were above 10000 nM, 9 nM, 23 nM, 5700 nM and above 5000 nM.
Consider `CCCCN1C(=O)[C@]2(CC(=O)Nc3c2nnn3[C@@H](C)c2ccc(Cl)cc2)c2cc(Cl)ccc21` [Compound 10, (R)-1'-Butyl-5'-chloro-3-((S)-1-(4-chlorophenyl)ethyl)-4,6-dihydrospiro[[1,2,3]triazolo[4,5-b]pyridine-7,3'-indoline]-2',5(3H)-dione], for which the CC50 at 48 h in series [1] is above 10000 nM. The EC50 in the series with DENV-3 replicon (setting [2]) was 18 nM; in the series with DENV-2 replicon (setting [3]) it was 75 nM; in the series with DENV-1 replicon it was 1300 nM; in the series on DENV-4 replicon, above 5000 nM.
The compound `C[C@@H](c1ccc(Cl)cc1)n1nnc2c1NC(=O)C[C@]21C(=O)N(Cc2ccc(Cl)cc2)c2ccc(Cl)cc21` [Compound 27, (R)-5'-Chloro-1'-(4-chlorobenzyl)-3-((S)-1-(4-chlorophenyl)ethyl)-4,6-dihydrospiro[[1,2,3]triazolo[4,5-b]pyridine-7,3'-indoline]-2',5(3H)-dione] came in with a CC50 at 48 h in series [1] above 10000 nM. Besides, the EC50 in the series on DENV-3 replicon (setting [2]) amounted to 200 nM; in the series with DENV-2 replicon (setting [3]), 3300 nM; in the series on DENV-1 replicon, 2200 nM; in the series with DENV-4 replicon, 6500 nM.
For `C[C@@H](c1ccc(Cl)cc1)n1nnc2c1NC(=O)C[C@]21C(=O)N(CCCCCCN(C)C)c2ccc(Cl)cc21` [Compound 68, (R)-5'-Chloro-3-((S)-1-(4-chlorophenyl)ethyl)-1'-(6-(dimethylamino)hexyl)-4,6-dihydrospiro[[1,2,3]triazolo[4,5-b]pyridine-7,3'indoline]-2',5(3H)-dione] the same measures were above 10000 nM, 66 nM, 900 nM, 1500 nM and above 5000 nM.
`CC(C)N1C(=O)[C@]2(CC(=O)N(C(C)C)c3c2nnn3[C@@H](C)c2ccc(Cl)cc2)c2cc(Cl)ccc21` [Compound 22, (R)-5'-Chloro-3-((S)-1-(4-chlorophenyl)ethyl)-1',4-diisopropyl-4,6-dihydrospiro[[1,2,3]triazolo[4,5-b]pyridine-7,3'-indoline]-2ʹ,5(3H)-dione] gave a CC50 at 48 h in series [1] above 10000 nM. In addition, the EC50 with DENV-3 replicon (setting [2]) is 1500 nM; with DENV-2 replicon (setting [3]) it was above 10000 nM; in the series with DENV-1 replicon it was 3800 nM; in the series on DENV-4 replicon, 3000 nM.
`C[C@@H](c1ccc(Cl)cc1)n1nnc2c1N(C)C(=O)C(C)(C)[C@]21C(=O)N(C)c2ccc(Cl)cc21` [Compound 23, (S)-5'-Chloro-3-((S)-1-(4-chlorophenyl)ethyl)-1ʹ,4,6,6-tetramethyl-4,6-dihydrospiro[[1,2,3]triazolo[4,5-b]pyridine-7,3ʹ-indoline]-2ʹ,5(3H)-dione] displayed a half-maximal cytotoxic concentration (CC50) at 48 h in series [1] above 10000 nM. Further, the EC50 in the series on DENV-3 replicon (setting [2]), in the series with DENV-2 replicon (setting [3]), with DENV-1 replicon and in the series with DENV-4 replicon was above 5000 nM each time.
For `C[C@@H](c1ccc(Cl)cc1)n1nnc2c1NC(=O)C[C@]21C(=O)N(CCc2ccccc2)c2ccc(Cl)cc21` [Compound 32, (R)-5'-Chloro-3-((S)-1-(4-chlorophenyl)ethyl)-1'-phenethyl-4,6-dihydrospiro[[1,2,3]triazolo[4,5-b]pyridine-7,3'-indoline]-2',5(3H)-dione], the CC50 at 48 h in series [1] is above 10000 nM. The 50% effective concentration (EC50) is 190 nM in the series on DENV-3 replicon (setting [2]), 600 nM in the series with DENV-2 replicon (setting [3]), 1100 nM in the series with DENV-1 replicon and above 5000 nM in the series with DENV-4 replicon.
For `C[C@@H](c1ccc(Cl)cc1)n1nnc2c1NC(=O)C[C@]21C(=O)N(CCCCN2CCCCC2)c2ccc(Cl)cc21` [Compound 67, (R)-5'-Chloro-3-((S)-1-(4-chlorophenyl)ethyl)-1'-(4-(piperidin-1-yl)butyl)-4,6-dihydrospiro[[1,2,3]triazolo[4,5-b]pyridine-7,3'-indoline]-2',5(3H)-dione], in that order: above 10000 nM, 78 nM, 350 nM, above 5000 nM and above 5000 nM.
For `C[C@@H](c1ccc(Cl)cc1)n1nnc2c1NC(=O)C[C@]21C(=O)N(Cc2ccc(Cl)nc2)c2ccc(Cl)cc21` [Compound 36, (R)-5'-Chloro-3-((S)-1-(4-chlorophenyl)ethyl)-1'-((6-chloropyridin-3-yl)methyl)-4,6-dihydrospiro[[1,2,3]triazolo[4,5-b]pyridine-7,3ʹ-indoline]-2',5(3H)-dione] the same measures were above 10000 nM, 6 nM, 78 nM, above 5000 nM and above 5000 nM.
